In patent US8729055B2, “Ursolic acid derivative and pharmaceutical composition thereof” (Kaohsiung Medical University, priority 2010, dated 2014):

Columns and labels:
[1] = test system: NTUB1 cells (human bladder cancer cell line); assay: MTT cytotoxicity assay against NTUB1 cells; format: cell-based; details: for IC50 / % of viability at the highest concentration: NTUB1 cells; for IC50: MTT, mean±SD (n=5); for % of viability at the highest concentration: given when 50% inhibition not reached at the highest concentration (30 μM); for cytotoxic activity against NTUB1 cells, in words: comparison with the parent compound, from Table 1
Experimental: In the present embodiment, cell culture and MTT assay is used for cell viability/proliferation. NTUB1, a human bladder cancer cell line, is established from a high-grade bladder cancer. […] The cells are cultured at 37° C. in a humidified atmosphere containing 5% CO2. […] Briefly, the cells are plated at a density of 1800 cells/well in 96-well plates and incubated at 37° C. overnight before drug exposure. Cells are then cultured in the presence of graded concentrations of the test compound with or without various concentrations of cisplatin (Pharmacia & Upjohn, Milan, Italy) at 37° C. for 72 h. At the end of the culture period, 50 μL of MTT (2 mg/mL in PBS) is added to each well and allowed to react for 3 h. Following centrifugation of plates at 1000 g for 10 min, media are removed and 150 μL DMSO are added to each well. The proportions of surviving cells are determined by absorbance spectrometry at 540 nm using […]) microplate reader. The cell viability is expressed as a percentage to the viable cells of control culture condition. The IC50s of each group are calculated by the […] analysis and presented as mean±standard deviation (SD). […] In Table 1, data are presented as mean±SD (n=5). […] The control cells are treated with culture medium containing 0.1% DMSO. Cisplatin is used as a positive control.

[2] = test system: rat neutrophils stimulated with PMA; assay: Experiment B: superoxide anion formation from rat neutrophils stimulated with PMA; format: cell-based; details: PMA (3 nM)
Experimental: This example illustrates the anti-inflammatory activities of compounds 5, 7-11, 20 and 21. The anti-inflammatory activities of compounds 5, 7-11, 20 and 21 are studied in vitro for their inhibitory effects on chemical mediators released from neutrophils, mast cells or macrophages of rat. […] In Table 2, when 50% inhibition could not be reached at the highest concentration, the percentage of inhibition at 30 μM is given. In the Experiment B, superoxide anion generation is measured in terms of superoxide dismutase-inhibitable cytochrome c reduction. Neutrophils isolated from the peripheral blood of the rats are washed and suspended in Hanks' balanced salt solution (HBSS). Neutrophil suspension is preincubated with DMSO or drugs, and then superoxide dismutase (SOD) or HBSS is added into the blank and test wells, respectively. The final volume of DMSO in the reaction mixture is ≦0.5%. After addition of cytochrome c, reaction is initiated by challenge with PMA (3 nM). Thirty minutes later, the reaction is terminated by centrifugation and the absorbance changes of supernatant are monitored at 550 nm in a microplate reader. The superoxide anion generation is measured in terms of superoxide dismutase-inhibitable cytochrome c reduction. Trifluoperazine is used as a positive control for the Experiment B.

[3] = test system: accumulation of NO2−; assay: Experiment A: accumulation of NO2− (Griess reaction); format: cell-based, rat; details: for percentage of inhibition at 30 μM, A NO2−: given when 50% inhibition not reached; for IC50: inhibition of accumulation of NO2−
Experimental: This example illustrates the anti-inflammatory activities of compounds 5, 7-11, 20 and 21. The anti-inflammatory activities of compounds 5, 7-11, 20 and 21 are studied in vitro for their inhibitory effects on chemical mediators released from neutrophils, mast cells or macrophages of rat.
Please refer to Table 2, which illustrates the inhibitory effects of compounds 5, 7-11, 20 and 21 on the accumulation of NO2^− (Experiment A), superoxide anion formation (n mol/10^6 cells/30 min) from rat neutrophils stimulated with PMA (Experiment B), and the release of β-glucuronidase from rat peritoneal mast cells stimulated with compound 48/80 (Experiment C). In Table 2, when 50% inhibition could not be reached at the highest concentration, the percentage of inhibition at 30 μM is given.
In the Experiment A, Nitric oxide (NO) in the cell medium is determined by the Griess reaction, and N-(3-aminomethyl)benzylamide (1400 W) is used as a positive control.

[4] = test system: NTUB1 cells; assay: Cell cycle progression by FACS in propidium iodide-stained NTUB1 cells; format: cell-based, human
Experimental: These cells are harvested by trypsinization, washed with 1×PBS, and fixed in ice-cold MeOH at −20° C. After overnight incubation, the cells are washed with PBS and incubated with 50 μg/mL propidium iodide (Sigma, Co) and 50 μg/mL RNase A (Sigma, Co) in PBS at room temperature for 30 min. The fractions of cells in each phase of cell cycle are analyzed using FACScan flow cytometer and Cell Quest software (Becton Dickinson).

[5] = test system: NTUB1 cells; assay: Intracellular ROS by DCFH-DA flow cytometry in NTUB1 cells; format: cell-based, human
Experimental: As to the quantitative analysis of intracellular ROS, the flow cytometry analysis is also adopted. Cells are plated and treated as above-mentioned conditions. Ten-micromolar dichlorofluorescein diacetate (DCFH-DA; Molecular Probes, Eugene, Oreg.) is added to the treated cells 30 min prior harvest. The cells are collected by trypsinization and washed with PBS. The green fluorescence of intracellular DCF (2′,7′-dichlorofluorescein) is then analyzed immediately by FACScan flow cytometer with a 525-nm band pass filter (Becton Dickinson).

[6] = test system: A549 cells; assay: MTT cytotoxicity assay against A549 cells; format: cell-based, human; details: 72 h
From the text: (§1) The data shown in FIGS. 4(A) to 4(C) represent mean±SD (n=3) for one experiment performed in triplicate. The symbols, “*” represents p<0.05, “**” represents p<0.01, and “***” represents p<0.001, compared to the control value, respectively.

[7] = test system: PC3 cells; assay: MTT cytotoxicity assay against PC3 cells; format: cell-based, human; details: 72 h
From the text: as §1

[8] = 50 μM, compared across the three cell lines

Compound: CC(C)=CCOC(=O)[C@]12CC[C@@H](C)[C@H](C)[C@H]1C1=CC[C@@H]3[C@@]4(C)CC[C@H](O)C(C)(C)[C@@H]4CC[C@@]3(C)[C@]1(C)CC2 [Compound 9, 3′-Methyl-2′-butenyl 3β-hydroxyurs-12-en-28-oate]
- IC50 ([1]; 72 h): 10.9 ± 2.01 µM
- IC50 [2]: 6.1 ± 1.9 µM
- percentage of inhibition at 30 μM, A NO2− [3]: 45.2 ± 5.9%

Compound: C[C@H]1[C@H](C)CC[C@]2(C(=O)OCC(=O)OC(C)(C)C)CC[C@]3(C)C(=CC[C@@H]4[C@@]5(C)CC[C@H](O)C(C)(C)[C@@H]5CC[C@]43C)[C@H]12 [Compound 11, Tert-Butoxycarbonylmethyl 3β-hydroxyurs-12-en-28-oate]
- IC50 ([1]; 72 h): > 30 µM
- % of viability at the highest concentration [1]: 64.85%
- IC50 [3]: 21.7 ± 6.5 µM

Compound: C[C@H]1[C@H](C)CC[C@]2(C(=O)O)CC[C@]3(C)C(=CC[C@@H]4[C@@](C)(CCC(=O)O)[C@H](C(C)(C)O)CC[C@]43C)[C@H]12 [Compound 22, 3,4-seco-Ursan-4-hydroxy-12-en-3,28-dioic acid]
- IC50 ([1]; 72 h): > 30 µM
- % of viability at the highest concentration [1]: 56.04%
- cytotoxic activity against NTUB1 cells, in words [1]: weakens cytotoxic activities

Compound: CN1CCN(CCCN2c3ccccc3Sc3ccc(C(F)(F)F)cc32)CC1 [trifluoperazine, reference compound]
- IC50 ([2]; Neutrophil): 7.3 ± 0.6 µM

Compound: C[C@H]1[C@H](C)CC[C@]2(C(=O)OCCO)CC[C@]3(C)C(=CC[C@@H]4[C@@]5(C)CC[C@H](O)C(C)(C)[C@@H]5CC[C@]43C)[C@H]12 [Compound 10, 2′-Hydroxyethyl 3β-hydroxyurs-12-en-28-oate]
- IC50 ([1]; 72 h): 19.5 µM
- cytotoxic activity against NTUB1 cells, in words [1]: attenuate the cytotoxicity
- percentage of inhibition at 30 μM, A NO2− [3]: 33.1 ± 7.2%

Compound: CC1CCC2(C(=O)O)CCC3(C)C(=CCC4C5(C)CCC(=O)C(C)(C)C5CCC43C)C2C1C (centres unmarked) [Compound 18]
- IC50 ([1]; 72 h): 21.4 ± 15.5 µM
- cytotoxic activity against NTUB1 cells, in words [1]: increases cytotoxicities

Compound: CCCCCCOC(=O)[C@]12CC[C@@H](C)[C@H](C)[C@H]1C1=CC[C@@H]3[C@@]4(C)CC[C@H](O)C(C)(C)[C@@H]4CC[C@@]3(C)[C@]1(C)CC2 [Compound 8, Hexyl 3β-hydroxyurs-12-en-28-oate]
- IC50 ([1]; 72 h): 26.2 ± 2.51 µM
- IC50 [2]: 11.5 ± 0.9 µM

Compound: N.N.[Cl][Pt][Cl] [cisplatin, reference compound]
- IC50 ([1]; 72 h): 3.27 ± 0.1 µM
- effect on cell cycle progression ([4]; 10 μM, 48 h): S phase arrest
- effect on cell cycle progression ([4]; 10 and 20 μM, 24 h): dose dependent accumulation of cells in the G1 phase with a concomitant increase in the population of sub-G1 phase
- intracellular ROS ([5]; 10 μM, 24 h, effect inhibited by NAC): significant increase in intracellular ROS
- intracellular ROS ([5]; 10 μM, 48 h, effect not inhibited by NAC): significant increase in intracellular ROS

Compound: CC(C)OC(=O)[C@]12CC[C@@H](C)[C@H](C)[C@H]1C1=CC[C@@H]3[C@@]4(C)CC[C@H](O)C(C)(C)[C@@H]4CC[C@@]3(C)[C@]1(C)CC2 [Compound 5, Isopropyl 3β-hydroxyurs-12-en-28-oate]
- cytotoxic effect at 50 μM, A549 cells [6, 8]: same cytotoxic effect
- cytotoxic effect against A549 cells compared with NTUB1 cells ([6]; MTT, FIG. 4): do not exhibit stronger cytotoxic effects
- cytotoxic effect at 50 μM, NTUB1 cells ([1]; 50 μM, 72 h, compared across the three cell lines): same cytotoxic effect
- IC50 ([1]; 72 h): 7.97 ± 0.48 µM
- effect on cell cycle progression ([4]; 20-40 μM, 48 h): arrests G2/M phase before accumulation of cells in sub-G1 phase
- effect on cell cycle progression ([4]; 20 and 40 μM (20-40 μM), 24 h): induces G1 phase arrest in a dose-dependent manner
- apoptotic cell death ([4]; 20 and 40 μM, 24 h): increase in the apoptotic cell death
- percentage of inhibition at 30 μM, A NO2− [3]: 45.3 ± 7.0%
- cytotoxic effect at 50 μM, PC3 cells [7, 8]: same cytotoxic effect
- cytotoxic effect against PC3 cells compared with NTUB1 cells ([7]; MTT, FIG. 4): do not exhibit stronger cytotoxic effects
- intracellular ROS ([5]; 40 μM, 24 h, effect inhibited by NAC): significant increase in intracellular ROS
- intracellular ROS ([5]; 20 and 40 μM, 48 h, effect not inhibited by NAC): significant increase in intracellular ROS

Compound: C[C@H]1[C@H](C)CC[C@]2(C(=O)O)CC[C@]3(C)C(=CC[C@@H]4[C@@]5(C)CC[C@H](O)C(C)(C)[C@@H]5CC[C@]43C)[C@H]12 [Compound 1, ursolic acid]
- IC50 ([1]; Homo sapiens, 72 h): 29.4 ± 1.9 µM

Compound: COC(=O)C12CCC(C)C(C)C1C1=CCC3C4(C)CCC(=O)C(C)(C)C4CCC3(C)C1(C)CC2 (centres unmarked) [Compound 19]
- IC50 ([1]; 72 h): 29.6 ± 4.65 µM

Compound: COC(=O)[C@]12CC[C@@H](C)[C@H](C)[C@H]1C1=CC[C@@H]3[C@@]4(C)CC[C@H](O)C(C)(C)[C@@H]4CC[C@@]3(C)[C@]1(C)CC2 [Compound 2]
- IC50 ([1]; 72 h): 37.1 µM
- cytotoxic activity against NTUB1 cells, in words [1]: decreases the cytotoxic activity

Compound: N-(3-aminomethyl)benzylamide [1400 W, reference compound]
- IC50 [3]: 5 ± 1.5 µM

Compound: CCCCCOC(=O)[C@]12CC[C@@H](C)[C@H](C)[C@H]1C1=CC[C@@H]3[C@@]4(C)CC[C@H](O)C(C)(C)[C@@H]4CC[C@@]3(C)[C@]1(C)CC2 [Compound 7, Pentyl 3β-hydroxyurs-12-en-28-oate]
- IC50 ([1]; 72 h): 27.8 ± 1.63 µM
- IC50 [2]: 10.8 ± 2.2 µM
- percentage of inhibition at 30 μM, A NO2− [3]: 29.8 ± 3.3%

Compound: CCOC(=O)C12CCC(C)C(C)C1C1=CCC3C4(C)CCC(O)C(C)(C)C4CCC3(C)C1(C)CC2 (centres unmarked) [Compound 3]
- IC50 ([1]; 72 h): 13.5 µM

Compound: C[C@H]1[C@H](C)CC[C@]2(C(=O)O)CC[C@]3(C)C(=CC[C@@H]4[C@@]5(C)CCC(=O)OC(C)(C)[C@@H]5CC[C@]43C)[C@H]12 [Compound 20, 4-Hydroxy-3,4-seco-ursan-12-en-28-oic acid 3,4 lactone]
- IC50 ([1]; 72 h): > 30 µM
- % of viability at the highest concentration [1]: 63.91%
- cytotoxic activity against NTUB1 cells, in words [1]: weakens cytotoxic activities
- percentage of inhibition at 30 μM, A NO2− [3]: 41.0 ± 9.6%
